These results are taken from article PMC3703951 (Bioorganic & medicinal chemistry letters, 2013).

Data set [1] concerns human alkaline phosphatase. As to the kind of experiment: Selectivity: inhibition of alkaline phosphatase. It is filed as biochemical. The conditions noted are these: selectivity panel.
The target of a further data set is T1, sEH-phosphatase activity (Homo sapiens, UniProt P34913).
T1 sequence (P34913 1-555): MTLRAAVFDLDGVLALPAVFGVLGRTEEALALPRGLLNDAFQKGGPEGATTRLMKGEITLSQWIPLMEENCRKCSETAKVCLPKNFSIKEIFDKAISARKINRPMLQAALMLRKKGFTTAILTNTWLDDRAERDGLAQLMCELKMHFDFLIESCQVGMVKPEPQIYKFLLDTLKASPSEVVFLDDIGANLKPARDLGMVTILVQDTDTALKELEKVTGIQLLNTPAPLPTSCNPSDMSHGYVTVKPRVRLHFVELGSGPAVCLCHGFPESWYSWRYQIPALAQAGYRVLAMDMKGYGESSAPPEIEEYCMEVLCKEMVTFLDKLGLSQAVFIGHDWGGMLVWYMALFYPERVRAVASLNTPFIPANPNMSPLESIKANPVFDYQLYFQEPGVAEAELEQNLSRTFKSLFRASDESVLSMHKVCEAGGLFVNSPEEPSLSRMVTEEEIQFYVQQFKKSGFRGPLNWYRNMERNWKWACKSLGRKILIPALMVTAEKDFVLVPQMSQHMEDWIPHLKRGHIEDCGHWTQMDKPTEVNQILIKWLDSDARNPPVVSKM
As to the kind of experiment: Selectivity: inhibition of sEH-phosphatase activity. As to conditions: selectivity panel. It is filed as biochemical.

The conditions of data set [2]: human, cited from earlier work.
The target in another data set is T2, human microsomal EH (Homo sapiens, UniProt P07099).
T2 sequence (P07099 1-455): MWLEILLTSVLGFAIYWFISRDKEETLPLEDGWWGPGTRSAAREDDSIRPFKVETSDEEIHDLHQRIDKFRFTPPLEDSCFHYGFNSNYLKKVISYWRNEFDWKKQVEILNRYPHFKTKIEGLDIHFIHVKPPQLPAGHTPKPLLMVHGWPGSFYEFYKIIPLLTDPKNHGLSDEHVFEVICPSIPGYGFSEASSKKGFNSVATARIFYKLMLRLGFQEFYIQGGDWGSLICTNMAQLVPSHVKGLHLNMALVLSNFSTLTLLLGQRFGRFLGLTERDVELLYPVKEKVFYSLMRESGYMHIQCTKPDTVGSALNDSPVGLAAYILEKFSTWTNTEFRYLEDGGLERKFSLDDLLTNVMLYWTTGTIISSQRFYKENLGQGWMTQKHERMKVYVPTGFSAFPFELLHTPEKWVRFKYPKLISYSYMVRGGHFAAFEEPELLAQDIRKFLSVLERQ
As to the kind of experiment: Selectivity: inhibition of microsomal EH. It is filed as biochemical. As to conditions: selectivity panel.

A further data set addresses T3, human sEH (Homo sapiens, UniProt P34913).
T3 sequence (P34913 1-555): T1 sequence (P34913 1-555)
As to the kind of experiment: Reversibility of inhibition: incubation with inhibitor, then dialysis. It is filed as biochemical. As to conditions: 20 nM human sEH incubated with 10 μM inhibitor for 15 min, then dialyzed.

A further data set relates to esterases and amidases. Kind of data set: Selectivity: inhibition of a series of esterases and amidases. It is filed as biochemical. As to conditions: selectivity panel.

For the molecule `C[C@]12CC[C@@H]3c4ccc(O)cc4C[C@@H](CCCCCCCCC[S+]([O-])CCCC(F)(F)C(F)(F)F)[C@H]3[C@@H]1CC[C@@H]2O` (stereo partly shown) [fulvestrant], the “Inhibition of human alkaline phosphatase” value in data set [1] is “only inhibit the sEH”. For the same molecule, the “Inhibition of sEH-phosphatase activity” value at sEH-phosphatase activity is “only inhibit the sEH”. Besides, in data set [2], the Stability in humans result is “very stable”. Moreover, the Blood concentration result in data set [2] (for several weeks following intramuscular treatment) was “around 10 nM”. The “Inhibition of human microsomal EH” value at human microsomal EH is “only inhibit the sEH”. Moreover, the “sEH activity recovered after dialysis” value at human sEH was “more than 80%”. The “Inhibition of a series of esterases and amidases” value with esterases and amidases is “only inhibit the sEH”.
